From patent publication US6063788A, “Bicyclic-fused pyridines” (Bayer Aktiengesellschaft, priority 1996, dated 2000) come the findings set out here.

For assay [1], the target named is T1, cholesterol ester transfer protein (CETP) (Homo sapiens, UniProt P11597).
T1 construct: CETP is obtained from human plasma in partially purified form; from tissue; host or cells: human plasma (partially purified by centrifugation, phenyl-Sepharose, CM-Sepharose, Mono Q)
T1 sequence (P11597 18-493): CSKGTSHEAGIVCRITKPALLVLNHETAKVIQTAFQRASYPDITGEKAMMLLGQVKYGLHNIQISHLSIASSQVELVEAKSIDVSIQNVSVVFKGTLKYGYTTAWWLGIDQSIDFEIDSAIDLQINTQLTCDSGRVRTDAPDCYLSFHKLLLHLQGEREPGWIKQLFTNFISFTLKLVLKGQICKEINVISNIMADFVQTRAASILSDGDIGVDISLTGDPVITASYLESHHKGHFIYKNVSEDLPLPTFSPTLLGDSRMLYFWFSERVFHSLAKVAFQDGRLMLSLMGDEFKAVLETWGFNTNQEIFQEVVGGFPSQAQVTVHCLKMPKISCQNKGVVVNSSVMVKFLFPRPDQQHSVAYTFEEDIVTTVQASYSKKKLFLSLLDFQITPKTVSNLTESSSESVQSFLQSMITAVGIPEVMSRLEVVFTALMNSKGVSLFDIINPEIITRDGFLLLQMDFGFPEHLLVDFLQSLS
The assay is described as follows: CETP inhibition testing (transfer of 3H-cholesterol ester from HDL to biotinylated LDL). The assay is classed as biochemical. The following applies: substance concentration at which transfer is reduced by half; 18 h at 37° C. On the procedure:
CETP is obtained from human plasma in partially purified form by differential centrifugation and column chromatography and used for the test. To this end, human plasma is adjusted to a density of 1.21 g per ml using NaBr and centrifuged at 4° C. for 18 h at 50,000 rpm. The bottom fraction (d>1.21 g/ml) is applied to a Sephadex®phenyl-sepharose 4B (Pharmacia) column, washed with 0.15 M NaCl/0.001 M trisHCl pH 7.4 and then eluted with distilled water. The CETP-active fractions are pooled, dialysed against 50 mM Na acetate pH 4.5 and applied to a CM-Sepharose® (Pharmacia) column. The column is then eluted using a linear gradient (0-1 M NaCl). The pooled CETP fractions are dialysed against 10 mM tris HCl pH 7.4 and then further purified by chromatography on a Mono Q® column (Pharmacia).
Obtainment of radiolabelled HDL
50 ml of fresh human EDTA plasma are adjusted to a density of 1.12 using NaBr and centrifuged at 50,000 rpm for 18 h at 4° C. in a Ty 65 rotor. The upper phase is used to obtain cold LDL. The lower phase is dialysed against 3×4 l of PDB buffer (10 mM tris/HCl pH 7.4, […], 1 mM EDTA, 0.02% NaN3). 20 μl of ^3 H-cholesterol (Dupont NET-725; 1 μC/μl dissolved in ethanol!) are then added per 10 ml of retentate volume and the mixture is incubated under N2 at 37° C. for 72 h. […]
To test the CETP activity, the transfer of ^3 H-cholesterol ester from human HD lipoproteins to biotinylated LD lipoproteins is measured.
The reaction is ended by addition of streptavidin-SPA®beads (Amersham) and the transferred radioactivity is determined directly in a liquid scintillation counter.
In the test mixture, 10 μl of HDL-^3 H-cholesterol ester (~50,000 cpm) are incubated at 37° C. for 18 h with 10 μl of biotin-LDL (Amersham) in 50 mM Hepes/0.15 M NaCl/0.1% bovine serum albumin/0.05% NaN3 pH 7.4 with 10 μl of CETP (1 mg/ml) and 3 μl of solution of the substance to be tested (dissolved in 10% DMSO/1% RSA). 200 μl of the SPA-streptavidin bead solution (TRKQ 7005) are then added, the mixture is incubated further for 1 h with shaking and then measured in the scintillation counter. […]

Assay [2] deals with HDL cholesterol. The experiment in a line: In vivo activity: oral action on lipoproteins (HDL rise) in hamsters. Details: species or system Syrian golden hamsters. The following applies: Dose 2 × 10 mg/kg, hamster, up to 24 hours. The procedure: In Vivo Activity of the Compounds According to the Invention
In experiments to determine the oral action on lipoproteins and triglycerides, test substance dissolved in DMSO and 0.5% Tylose suspended by means of a stomach tube are administered orally to Syrian golden hamsters from in-house breeding. To determine the CETP activity, blood (about 250 μl) is taken by retro-orbital puncture before the start of the experiment. The test substances are then administered orally by means of a stomach tube. The control animals receive identical volumes of solvents without test substance. The feed is then withdrawn from the animals and blood is taken at various times--up to 24 hours after substance administration--by puncture of the retro-orbital venous plexus.
Clotting is ended by incubation at 4° C. overnight, then centrifugation at 6000×g is carried out for 10 minutes. In the serum thus obtained, the content of cholesterol and triglycerides is determined with the aid of modified commercially available enzyme tests (cholesterol enzymatic 14366 Merck, triglycerides 14364 Merck). Serum is suitably diluted using physiological saline solution.
100 μl of serum dilution are mixed with 100 μl of […] in 96-hole plates and incubated at room temperature for 10 minutes. The optical density is then determined at a wavelength of 492 nm using an automatic plate-reading apparatus. The triglyceride or cholesterol concentration contained in the samples is determined with the aid of a standard curve measured in parallel.
The determination of the content of HDL cholesterol is carried out according to the manufacturer's instructions after precipitation of the ApoB-containing lipoproteins by means of a reagent mixture (Sigma 352-4 HDL cholesterol reagent).

For assay [3], the system named is CETP. The assay is described as follows: Ex vivo activity: CETP activity in serum of treated hamsters. On the set-up: species or system Syrian golden hamsters. The following applies: hamster serum; for ED50 (ex vivo activity): up to 24 hours after administration. On the procedure: Ex Vivo Activity of the Compounds According to the Invention
Syrian golden hamsters from in-house breeding are anaesthetized after fasting for 24 hours (0.8 mg/kg of atropine, 0.8 mg/kg of Ketavet® s.c., 30' later 50 mg/kg of Nembutal i.p.). The jugular vein is then exposed and cannulated. The test substance is dissolved in a suitable solvent (as a rule Adalat placebo solution: 60 g of glycerol, 100 ml of H2 O, PEG-400 to 1000 ml) and administered to the animals via a PE catheter inserted in the jugular vein. The control animals receive the same volume of solvent without test substance. The vein is then tied off and the wound is closed. The administration of the test substances can also be carried out p.o., by orally administering the substances dissolved in DMSO and suspended in 0.5% Tylose by means of a stomach tube. The control animals receive identical volumes of solvent without test substance.
After various times--up to 24 hours after administration--blood (about 250 μl) is taken from the animals by puncture of the retro-orbital venous plexus. Clotting is ended by incubation at 4° C. overnight, then centrifugation is carried out at 6000×g for 10 minutes. In the serum thus obtained, CETP activity is determined by the modified CETP test. As for the CETP test described above, the transfer of ^3 H-cholesterol ester from HD lipoproteins to biotinylated LD lipoproteins is measured.
The reaction is ended by addition of Streptavidin-SPA® beads (Amersham) and the transferred radioactivity is determined directly in the liquid scintillation counter.
The test mixture is carried out as described under "CETP test". For the testing of the serum, only 10 μl of CETP are replaced by 10 μl of the corresponding serum samples. As controls, corresponding incubations with sera of untreated animals are used.
The activity transferred in the control mixtures with control sera is rated as 100% transfer. The substance concentration at which this transfer is reduced to a half is indicated as the ED50 value.

In assay [4] the test system is transgenic hCETP mice. The assay is described as follows: In vivo activity in transgenic hCETP mice. The settings on record: 100 ppm in the feed; one week. On the procedure: In Vivo Activity in Transgenic hCETP Mice
Transgenic mice from in-house breeding (Dinchuck, Hart, Gonzalez, Karmann, Schmidt, Wirak; BBA (1995), 1295, 301) were administered the substances to be tested in the feed. Before the start of the experiment, blood was taken retro-orbitally from the mice in order to determine cholesterol and triglycerides in the serum. The serum was obtained as described above for hamsters by incubation at 4° C. overnight and subsequent centrifugation at 6000×g. After one week, blood was again taken from the mice in order to determine lipoproteins and triglycerides. The change in the parameters measured is expressed as a percentage change compared with the starting value.

As a reminder, the IC50 is the concentration at which inhibition is half-maximal. A higher IC50 goes with weaker potency. `CC(C)c1nc2c(c(-c3ccc(F)cc3)c1C(F)c1ccc(C(F)(F)F)cc1)C(O)c1cc(Cl)c(Cl)cc1-2` (stereo not drawn) [Example 27] came in with an IC50 in assay [1] of 0.3 µM.

On to `OC1c2ccccc2-c2nc(C3CCCC3)c(Cc3ccc(C(F)(F)F)cc3)c(-c3ccc(F)cc3)c21` (stereo not drawn) [Example 20], for which, in assay [2], the “% HDL rise” value came out at 11.14%.

As to `OC1c2ccccc2-c2nc(C3CCCC3)c(C(F)c3ccc(C(F)(F)F)cc3)c(-c3ccc(F)cc3)c21` (stereo not drawn) [Example 18], the “% HDL rise” value in assay [2] was determined as 3.3%.

Usually % Inhibition stands for how much of the control response was suppressed. Read a low % Inhibition as a weak effect. Turning to `CC(C)c1nc2c(c(-c3ccc(F)cc3)c1C(F)c1ccc(C(F)(F)F)cc1)C(O)c1ccccc1-2` (stereo not drawn) [Example 14], in assay [3], the “% Inhibition at 10 mg/kg” value was 64.0% and the “ED50 (ex vivo activity)” value is under 10 mg/kg. In addition, in assay [4], the “HDL (percentage change compared with the starting value)” value was determined as 22.0%, the “LDL (percentage change compared with the starting value)” value is listed as -10.5% and the “Triglyceride (percentage change compared with the starting value)” value is given as -9.7%. This compound gave an IC50 in assay [1] of 0.06 µM.

`O=C(c1ccc(C(F)(F)F)cc1)c1c(C2CCCC2)nc2c(c1-c1ccc(F)cc1)C(O)c1ccccc1-2` (stereo not drawn) [Example 19]: the “% HDL rise” value in assay [2] is on record as 17.1%. Besides, in assay [3], the “% Inhibition at 10 mg/kg” value turned out to be 46.0% and the “ED50 (ex vivo activity)” value was over 10 mg/kg.

The compound `OC(c1ccc(Cl)c(C(F)(F)F)c1)c1c(C2CCCC2)nc2c(c1-c1ccc(F)cc1)C(O)c1ccccc1-2` (stereo not drawn) [Example 22] showed an IC50 in assay [1] of 0.24 µM.

As for `O=C1c2cccc(F)c2-c2nc(C3CCCC3)c(C(F)c3ccc(C(F)(F)F)cc3)c(-c3ccc(F)cc3)c21` (stereo not drawn) [Example 29], in assay [3], the “% Inhibition at 10 mg/kg” value came out at 17.2% and the “ED50 (ex vivo activity)” value was over 10 mg/kg.
